Read-outs that look alike come from different tables or passages of the source.
Key:
[1] = system: IL-17-induced GROα secretion from HT-29 cells; test: GROα release assay in human colorectal adenocarcinoma epithelial cell (HT-29, ELISA); type: cell-based; details: 10 ng/mL IL-17A, highest concentration 10 μM, read-out: Cellular assay HT29 cell/CXCL1 IC50
Experimental: The purpose of the assay is to test the ability of a compound to neutralize IL17A proteins. IL17 can stimulate human epithelial cells to secrete GROα. The ability of one compound of the invention to neutralize IL-17-induced GROα secretion from the human colorectal adenocarcinoma epithelia cell line HT-29 is tested in this assay.
HT-29 cells (human colorectal adenocarcinoma epithelia cell, ATCC) were stimulated with IL-17A (Novoprotein, #C774) in final concentration of 10 ng/mL. The resultant GROα response was measured using an ELISA kit from Invitrogen (#88-52122). HT-29 cells were cultured in complete medium (McCoy's 5A medium+10% FBS) and maintained in a tissue culture flask using standard techniques. On day 1, detached the cell by using TrypLE (Gibco, #12605036) and used the complete medium to neutralize. The cells were centrifuged at 11,00 rmp for 4 minutes. Re-suspended the cell pellet in complete medium and seeded 50,000 HT-29 cells into the 96-well assay plate (Corning, 3599) at 135 μL complete medium per well. The cells were incubated for overnight, at 37° C./5% CO2 to adherent the plate. On day 2, prepared a 4-fold serial dilution of the tested compound in DMSO. The highest concentration of the compound was 10 μM. Transferred 2 μL of the serial diluted compound from the serial dilution plate into the reagent plate which was contained 198 μL complete medium with 100 ng/mL IL-17A per well. The compounds were incubated with the IL-17A for 15 minutes. 15 μL mixtures from reagent plate were transferred into the cell assay plate. Incubated the plate at 37° C./5% CO2 for 48 hours. After the incubation, on day 4, GROα level were measured with GROα ELISA as the manufacturer's instructions. 50 μL supernatant was collected form the assay plate to ELISA plate. ELISA plate was read at 450 nm on a microplate reader and compared to a standard calibration curve.
Data were processed using GraphPad Prism. GROα concentration was calculated from the standard curve. IC50 was determined using the equation log concentration (inhibitor) against response and fitted to four parameters.

[2] = biological target: human IL-17A / human IL-17RA (Homo sapiens (Human), UniProt Q16552); test: Human IL-17A biochemical assay (HTRF, blocking of IL-17A binding to IL-17RA); details: 0.4 nM IL-17A, 0.3 nM IL-17RA, max compound concentration 10 uM
Experimental: Compounds disclosed herein were tested for blocking of human IL-17A (Cat: C774, novoprotein) protein with its receptor human IL-17RA (Cat: C153, novoprotein) in an assay based on Homogeneous Time Resolved Fluorescence. 0.4 nM recombinant human IL-17A protein was pre-incubated with a serial dilution of compounds disclosed herein (maximum concentration is 10 uM, 2.7-fold serially diluted, 10 points) at room temperature for 3 hours in an assay buffer containing 20 mM HEPES, pH 7.5, 50 mM NaCl, 0.1% BSA, 0.2 mM DTT, 0.005% Tween 20. Then 0.3 nM recombinant human IL-17RA was added to plate and further incubated at room temperature for 1 hour. After that Mab Anti-6His Tb cryptate Gold (Cat: 61HI2TLB, Cisbio Bioassays) and MAb Anti Human IgG-XL665 (Cat: 61HFCXLB, Cisbio Bioassays) were added to plate and further incubated at room temperature for 1 hour. The HTRF signals (ex337 nm, em620 nm/665 nm) were read on BMG PHERAstar FSX instrument. The inhibition percentage of human IL-17A interaction with its receptor human IL-17RA in presence of increasing concentrations of compounds was calculated based on the ratio of […]. The IC50 for each compound was derived from fitting the data to the four-parameter logistic equation by Dotmatics.

Sequence of human IL-17A / human IL-17RA (Q16552 24-155): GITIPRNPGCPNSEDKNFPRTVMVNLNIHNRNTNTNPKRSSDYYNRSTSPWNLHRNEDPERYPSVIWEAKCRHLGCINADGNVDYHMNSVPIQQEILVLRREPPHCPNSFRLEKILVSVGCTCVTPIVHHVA

Structure (SMILES)	IC50 ([1]; Homo sapiens, HT-29, 48 h) [nM]	IC50 [2] [nM]	IC50 ([1]; 48 hours) [nM]
CNC(=O)C1(N2C[C@@H](C(C)C)NC2=O)Cc2ccc(NC(=O)[C@@H](NC(=O)c3ccnn3C)C3CCC(F)(F)CC3)cc2C1 (stereo partly drawn) [Example 67, N-((1S)-1-(4,4-difluorocyclohexyl)-2-((2-((R)-4-isopropyl-2-oxoimidazolidin-1-yl)-2-(methylcarbamoyl)-2,3-dihydro-1H-inden-5-yl)amino)-2-oxoethyl)-1-methyl-1H-pyrazole-5-carboxamide]	365	70	–
CNC(=O)C1(N2CC3(CC3)CNC2=O)Cc2ccc(NC(=O)[C@@H](NC(=O)c3cccc(C#N)c3)C3CCCCC3)cc2C1 (stereo partly drawn) [Example 153, 5-((S)-2-(3-cyanobenzamido)-2-cyclohexylacetamido)-N-methyl-2-(6-oxo-5,7-diazaspiro[2.5]octan-5-yl)-2,3-dihydro-1H-indene-2-carboxamide]	258	95	–
CC(C)n1nccc1C(=O)N[C@H](C(=O)Nc1ccc2c(c1)CC(N1C[C@@H](C(F)(F)F)NC1=O)C2)C(C1CC1)C1CC1 (stereo partly drawn) [Example 177, N-((2S)-1,1-dicyclopropyl-3-oxo-3-((2-((S)-2-oxo-4-(trifluoromethyl)imidazolidin-1-yl)-2,3-dihydro-1H-inden-5-yl)amino)propan-2-yl)-1-isopropyl-1H-pyrazole-5-carboxamide]	59.4	53.3	–
CNC(=O)C1(N2CC(C)CNC2=O)Cc2ccc(NC(=O)[C@@H](NC(=O)c3ccnn3C)C3CCCCC3)cc2C1 (stereo partly drawn) [Example 98, N-((1S)-1-cyclohexyl-2-((2-(5-methyl-2-oxotetrahydropyrimidin-1(2H)-yl)-2-(methylcarbamoyl)-2,3-dihydro-1H-inden-5-yl)amino)-2-oxoethyl)-1-methyl-1H-pyrazole-5-carboxamide]	3280	628	–
Cc1nonc1C(=O)N[C@H](C(=O)Nc1ccc2c(c1)CC(C(=O)Nc1cccc(F)c1)(N1CC3(CC3)CNC1=O)C2)C(C1CC1)C1CC1 (stereo partly drawn) [Example 216, N-((2S)-1,1-dicyclopropyl-3-((2-((3-fluorophenyl)carbamoyl)-2-(6-oxo-5,7-diazaspiro[2.5]octan-5-yl)-2,3-dihydro-1H-inden-5-yl)amino)-3-oxopropan-2-yl)-4-methyl-1,2,5-oxadiazole-3-carboxamide]	58.9	23.3	–
CNC(=O)C1(N2C[C@@H](C(C)C)NC2=O)Cc2ccc(NC(=O)[C@@H](NC(=O)c3cccc(Cl)c3)C3CCCCC3)cc2C1 (stereo partly drawn) [Example 69, 5-((S)-2-(3-chlorobenzamido)-2-cyclohexylacetamido)-2-((R)-4-isopropyl-2-oxoimidazolidin-1-yl)-N-methyl-2,3-dihydro-1H-indene-2-carboxamide]	432	120	–
COc1ccccc1NC(=O)C1(N2C[C@@H](C(C)C)NC2=O)Cc2ccc(NC(=O)[C@@H](NC(=O)c3nonc3C)C(C3CC3)C3CC3)cc2C1 (stereo partly drawn) [Example 254, N-((2S)-1,1-dicyclopropyl-3-((2-((R)-4-isopropyl-2-oxoimidazolidin-1-yl)-2-((2-methoxyphenyl)carbamoyl)-2,3-dihydro-1H-inden-5-yl)amino)-3-oxopropan-2-yl)-4-methyl-1,2,5-oxadiazole-3-carboxamide]	318	178	–
CNC(=O)C1(N2CC3(CC3)CNC2=O)Cc2ccc(NC(=O)[C@@H](NC(=O)c3ccnn3C3CC3)C3CCCCC3)cc2C1 (stereo partly drawn) [Example 141, N-((1S)-1-cyclohexyl-2-((2-(methylcarbamoyl)-2-(6-oxo-5,7-diazaspiro[2.5]octan-5-yl)-2,3-dihydro-1H-inden-5-yl)amino)-2-oxoethyl)-1-cyclopropyl-1H-pyrazole-5-carboxamide]	41.1	16	–
Cc1nonc1C(=O)N[C@H](C(=O)Nc1ccc2c(c1)CC(C(=O)Nc1ccccc1C(F)F)(N1C[C@@H](C(C)C)NC1=O)C2)C(C1CC1)C1CC1 (stereo partly drawn) [Example 268, N-((2S)-1,1-dicyclopropyl-3-((2-((2-(difluoromethyl)phenyl)carbamoyl)-2-((R)-4-isopropyl-2-oxoimidazolidin-1-yl)-2,3-dihydro-1H-inden-5-yl)amino)-3-oxopropan-2-yl)-4-methyl-1,2,5-oxadiazole-3-carboxamide]	248	88.1	–
Cc1nonc1C(=O)N[C@H](C(=O)Nc1ccc2c(c1)CC(C#N)(N1CC3(CC3)CNC1=O)C2)C(C1CC1)C1CC1 (stereo partly drawn) [Example 226, N-((2S)-1-((2-cyano-2-(6-oxo-5,7-diazaspiro[2.5]octan-5-yl)-2,3-dihydro-1H-inden-5-yl)amino)-3,3-dicyclopropyl-1-oxopropan-2-yl)-4-methyl-1,2,5-oxadiazole-3-carboxamide]	225	50.4	–
CNC(=O)C1(N2CC3(CC3)CNC2=O)Cc2cc3nc([C@@H](NC(=O)c4ccnn4C)C4CCCCC4)[nH]c3cc2C1 [Example 137, 2-((S)-cyclohexyl(1-methyl-1H-pyrazole-5-carboxamido)methyl)-N-methyl-6-(6-oxo-5,7-diazaspiro[2.5]octan-5-yl)-1,5,6,7-tetrahydroindeno[5,6-d]imidazole-6-carboxamide]	1490	413	–
CNC(=O)C1(N2CC(C3CCC3)NC2=O)Cc2ccc(NC(=O)[C@@H](NC(=O)c3ccnn3C)C3CCCCC3)cc2C1 (stereo partly drawn) [Example 27, N-((1S)-2-((2-(4-cyclobutyl-2-oxoimidazolidin-1-yl)-2-(methylcarbamoyl)-2,3-dihydro-1H-inden-5-yl)amino)-1-cyclohexyl-2-oxoethyl)-1-methyl-1H-pyrazole-5-carboxamide]	982	160	–
Cc1nonc1C(=O)N[C@H](C(=O)Nc1ccc2c(c1)CC(N1C[C@@H](C(C)C)NC1=O)(C(C)(O)C(F)(F)F)C2)C(C1CC1)C1CC1 (stereo partly drawn) [Example 250, N-((2S)-1,1-dicyclopropyl-3-((2-((R)-4-isopropyl-2-oxoimidazolidin-1-yl)-2-(1,1,1-trifluoro-2-hydroxypropan-2-yl)-2,3-dihydro-1H-inden-5-yl)amino)-3-oxopropan-2-yl)-4-methyl-1,2,5-oxadiazole-3-carboxamide]	190	–	271
COc1ccccc1NCC1(N2CC3(CC3)CNC2=O)Cc2ccc(NC(=O)[C@@H](NC(=O)c3ccnn3C)C3CCCCC3)cc2C1 (stereo partly drawn) [Example 173, N-((1S)-1-cyclohexyl-2-((2-(((2-methoxyphenyl)amino)methyl)-2-(6-oxo-5,7-diazaspiro[2.5]octan-5-yl)-2,3-dihydro-1H-inden-5-yl)amino)-2-oxoethyl)-1-methyl-1H-pyrazole-5-carboxamide]	153	–	–
CNC(=O)C1(N2CC(C)(Cc3ccccc3)CNC2=O)Cc2ccc(NC(=O)[C@@H](NC(=O)c3ccnn3C)C3CCCCC3)cc2C1 (stereo partly drawn) [Example 109, N-((1S)-2-((2-(5-benzyl-5-methyl-2-oxotetrahydropyrimidin-1(2H)-yl)-2-(methylcarbamoyl)-2,3-dihydro-1H-inden-5-yl)amino)-1-cyclohexyl-2-oxoethyl)-1-methyl-1H-pyrazole-5-carboxamide]	–	3450	–
CNC(=O)C1(N2CC(C3CCc4ccccc43)NC2=O)Cc2ccc(NC(=O)[C@@H](NC(=O)c3ccnn3C)C3CCCCC3)cc2C1 (stereo partly drawn) [Example 92, N-((1S)-1-cyclohexyl-2-((2-(4-(2,3-dihydro-1H-inden-1-yl)-2-oxoimidazolidin-1-yl)-2-(methylcarbamoyl)-2,3-dihydro-1H-inden-5-yl)amino)-2-oxoethyl)-1-methyl-1H-pyrazole-5-carboxamide]	–	3040	–

Source: US20250154138A1, “Small Molecule IL-17A Modulators” (BeiGene, Ltd., priority 2022, published 2025)
